Columns and labels:
[1] = in vivo; cited from earlier work
[2] = system: New Zealand White rabbits; assay: Post-mortem T1-weighted MRI after intravitreal injection of Gd-DOTA in thermoresponsive hydrogel; format: in vivo, rabbit; details: 24 h after intravitreal injection
Protocol: Scans were performed within one hour of sacrifice. Soluble Gd-DOTA without MP encapsulation was largely cleared from the injection site at 24 h, with only 56% and 59% signal intensity (relative to nearby muscle tissue) in the vitreous and anterior chamber, respectively. […] The spatiotemporal distribution of Gd-DOTA into the rest of the eye will also provide valuable data for future controlled release formulations of other ocular therapeutics, such as those targeting the posterior segment of the eye.

[3] = Loading and release of other drugs from microparticles embedded within the gel; format: physicochemical
From the text: The loading and release of other drugs (moxiflxacin and vancomycin) with the microparticles embedded within the gel has also been confirmed.

O=C([O-])CN(CCN(CC(=O)[O-])CC(=O)O)CCN(CC(=O)[O-])CC(=O)O.[Gd+3] [Gd-DTPA]
ocular half-life [1]: 28.08 min

O=C([O-])CN1CCN(CC(=O)[O-])CCN(CC(=O)O)CCN(CC(=O)[O-])CC1.[Gd+3] [Soluble Gd-DOTA, gadolinium-tetraazocyclododecanetetraacetic acid]
signal intensity relative to nearby muscle tissue, anterior chamber [2]: 59%
signal intensity relative to nearby muscle tissue, vitreous [2]: 56%

CN[C@H](CC(C)C)C(=O)N[C@H]1C(=O)N[C@@H](CC(N)=O)C(=O)N[C@H]2C(=O)N[C@H]3C(=O)N[C@H](C(=O)N[C@H](C(=O)O)c4cc(O)cc(O)c4-c4cc3ccc4O)[C@H](O)c3ccc(c(Cl)c3)Oc3cc2cc(c3O[C@@H]2O[C@H](CO)[C@@H](O)[C@H](O)[C@H]2O[C@H]2C[C@](C)(N)[C@H](O)[C@H](C)O2)Oc2ccc(cc2Cl)[C@H]1O [vancomycin]
loading and release with microparticles embedded within the gel [3]: confirmed

Brimonidine tartrate [BT]
ocular half-life [1]: 28.2 min
